Data on 23 compounds can be found in US11046680B1, “Heteroaryl-substituted triazoles as APJ receptor agonists” (priority 2016, dated 2021).

The structures appear in SMILES notation.

This experiment has as its target human APJ receptor (Homo sapiens (Human), UniProt P35414). In words: biochemical. It counts as biochemical. To be noted: [35S]GTPγS binding, CHO membranes expressing human APJ receptor; read-out: Activity hAPJ SPA EC50 IP. The essentials:
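Membranes of a stable CHO line carrying human APJ (pFLAG-CMV-3) were used in a GTPγS binding format; buffer GDP, MgCl2 and NaCl were optimized, and plates were read after 90 min at RT.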
For orientation: GTPγS resists hydrolysis and so accumulates on activated G proteins.

Sequence of human APJ receptor (P35414 whole entry): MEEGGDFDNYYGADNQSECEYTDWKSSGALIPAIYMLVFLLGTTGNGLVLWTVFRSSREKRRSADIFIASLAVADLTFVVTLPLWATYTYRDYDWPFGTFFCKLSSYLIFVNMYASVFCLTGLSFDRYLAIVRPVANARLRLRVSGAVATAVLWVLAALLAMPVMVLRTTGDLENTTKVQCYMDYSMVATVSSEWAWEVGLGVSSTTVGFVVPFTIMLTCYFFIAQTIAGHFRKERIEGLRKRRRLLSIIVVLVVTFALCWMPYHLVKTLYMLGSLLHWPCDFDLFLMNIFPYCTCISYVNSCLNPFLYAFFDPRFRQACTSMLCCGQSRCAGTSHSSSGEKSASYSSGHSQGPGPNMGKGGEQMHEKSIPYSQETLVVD

The term EC50 denotes the concentration giving half of the maximal effect. As for `COc1cccc(OC)c1-n1c(NS(=O)(=O)[C@H](C)[C@H](O)c2ncc(C)cn2)nnc1-c1nc(C)cs1` (single isomer, unassigned) [Example 316.0, (1R,2R)-N-(4-(2,6-dimethoxyphenyl)-5-(4-methylthiazol-2-yl)-4H-1,2,4-triazol-3-yl)-1-hydroxy-1-(5-methylpyrimidin-2-yl)propane-2-sulfonamide or (1S,2S)-N-(4-(2,6-dimethoxyphenyl)-5-(4-methylthiazol-2-yl)-4H-1,2,4-triazol-3-yl)-1-hydroxy-1-(5-methylpyrimidin-2-yl)propane-2-sulfonamide], the EC50 was 81 nM.
As for `COc1cccc(OC)c1-n1c(NS(=O)(=O)[C@@H](C)[C@H](O)c2cn3ccccc3n2)nnc1-c1ccn(C)n1` (single isomer, unassigned) [Example 350.0, (1R,2S)-N-(4-(2,6-Dimethoxyphenyl)-5-(1-methyl-1H-pyrazol-3-yl)-4H-1,2,4-triazol-3-yl)-1-hydroxy-1-imidazo[1,2-a]pyridin-2-yl-2-propanesulfonamide or (1S,2R)-N-(4-(2,6-dimethoxyphenyl)-5-(1-methyl-1H-pyrazol-3-yl)-4H-1,2,4-triazol-3-yl)-1-hydroxy-1-imidazo[1,2-a]pyridin-2-yl-2-propanesulfonamide], the EC50 stood at 6.1 nM.
As for `COc1cccc(OC)c1-n1c(NS(=O)(=O)CCc2ccc(F)cc2C#N)nnc1-c1nc(C2CC2)cs1` [Example 155.0, 2-(2-cyano-4-fluorophenyl)-N-(5-(4-cyclopropylthiazol-2-yl)-4-(2,6-dimethoxyphenyl)-4H-1,2,4-triazol-3-yl)ethanesulfonamide], the EC50 came out at 10 nM.
Then `COc1cccc(OC)c1-n1c(NS(=O)(=O)C[C@H](O)c2ccc(Cl)cc2)nnc1-c1ccn(C)n1` (single isomer, unassigned) [Example 374.0, (R)-2-(4-Chlorophenyl)-N-(4-(2,6-dimethoxyphenyl)-5-(1-methyl-1H-pyrazol-3-yl)-4H-1,2,4-triazol-3-yl)-2-hydroxyethanesulfonamide or (R)-2-(4-chlorophenyl)-N-(4-(2,6-dimethoxyphenyl)-5-(1-methyl-1H-pyrazol-3-yl)-4H-1,2,4-triazol-3-yl)-2-hydroxyethanesulfonamide], with 7 nM; and `COc1cccc(OC)c1-n1c(NS(=O)(=O)[C@@H](C)[C@H](OC)c2ncc(C)cn2)nnc1-c1nccs1` [Example 341.0, (1R,2S)-N-(4-(2,6-dimethoxyphenyl)-5-(1,3-thiazol-2-yl)-4H-1,2,4-triazol-3-yl)-1-methoxy-1-(5-methyl-2-pyrimidinyl)-2-propanesulfonamide], with 0.73 nM.
Take `CCn1ccc(-c2nnc(NS(=O)(=O)[C@@H](C)[C@H](C)c3ncc(F)cn3)n2-c2c(OC)cccc2OC)n1` [Example 191.0, (2S,3R)-N-(4-(2,6-dimethoxyphenyl)-5-(1-ethyl-1H-pyrazol-3-yl)-4H-1,2,4-triazol-3-yl)-3-(5-fluoro-2-pyrimidinyl)-2-butanesulfonamide]: the EC50 was 0.63 nM.
Regarding `COc1ccc2[nH]c(-c3nnc(NS(=O)(=O)[C@@H](C)[C@H](OC)c4ncc(C)cn4)n3-c3c(OC)cccc3OC)cc2c1` [Example 336.0, (1R,2S)-N-(4-(2,6-dimethoxyphenyl)-5-(5-methoxy-1H-indo1-2-yl)-4H-1,2,4-triazol-3-yl)-1-methoxy-1-(5-methyl-2-pyrimidinyl)-2-propanesulfonamide], the 50% effective concentration (EC50) was 310 nM.
Take `CO[C@H](c1ncc(Cl)cn1)[C@H](C)S(=O)(=O)Nc1nnc(-c2nn(C)c3c2CCCC3)n1C(C)C` [Example 512.0, (1R,2S)-1-(5-chloropyrimidin-2-yl)-N-(4-isopropyl-5-(1-methyl-4,5,6,7-tetrahydro-1H-indazol-3-yl)-4H-1,2,4-triazol-3-yl)-1-methoxypropane-2-sulfonamide]: the EC50 is 130 nM.
In the case of `COc1cccc(OC)c1-n1c(NS(=O)(=O)[C@@H]2C[C@H](O)CN(c3ncc(F)cn3)C2)nnc1-c1nc(C)cs1` (single isomer, unassigned) [Example 254.0, (3R,5S)-N-(4-(2,6-dimethoxyphenyl)-5-(4-methyl-1,3-thiazol-2-yl)-4H-1,2,4-triazol-3-yl)-1-(5-fluoro-2-pyrimidinyl)-5-hydroxy-3-piperidinesulfonamide or (3S,5R)-N-(4-(2,6-dimethoxyphenyl)-5-(4-methyl-1,3-thiazol-2-yl)-4H-1,2,4-triazol-3-yl)-1-(5-fluoro-2-pyrimidinyl)-5-hydroxy-3-piperidinesulfonamide], the EC50 is 1.2 nM.
On to `COc1cccc(OC)c1-n1c(NS(=O)(=O)CCc2ccc(Cl)cc2)nnc1-c1cscn1` [Example 91.0, 2-(4-chlorophenyl)-N-(4-(2,6-dimethoxyphenyl)-5-(thiazol-4-yl)-4H-1,2,4-triazol-3-yl)ethanesulfonamide], for which the EC50 came out at 26 nM.
Consider `COCC1(n2c(NS(=O)(=O)[C@@H](C)[C@H](C)c3cnc(OC)cn3)nnc2-c2ccn(C)n2)CC1` [Example 454.0, (2S,3R)-N-(4-(1-(methoxymethyl)cyclopropyl)-5-(1-methyl-1H-pyrazol-3-yl)-4H-1,2,4-triazol-3-yl)-3-(5-methoxy-2-pyrazinyl)-2-butanesulfonamide], for which the EC50 was 56 nM.
For the compound `COc1cccc(OC)c1-n1c(NS(=O)(=O)[C@@H](C)[C@H](O)c2ncc(C)cn2)nnc1-c1cc(C)n[nH]1` [Example 349.0, (1R,2S)-N-(4-(2,6-Dimethoxyphenyl)-5-(3-methyl-1H-pyrazol-5-yl)-4H-1,2,4-triazol-3-yl)-1-hydroxy-1-(5-methylpyrimidin-2-yl)propane-2-sulfonamide], the EC50 amounted to 2.1 nM.
For the compound `COc1cccc(OC)c1-n1c(NS(=O)(=O)[C@@H](C)[C@@H](OC(C)C)c2ncc(Cl)cn2)nnc1-c1cnn2c1CCC2` [Example 447.0, (1S,2S)-1-(5-chloropyrimidin-2-yl)-N-(5-(5,6-dihydro-4H-pyrrolo[1,2-b]pyrazol-3-yl)-4-(2,6-dimethoxyphenyl)-4H-1,2,4-triazol-3-yl)-1-isopropoxypropane-2-sulfonamide], the concentration giving a half-maximal response (EC50) was found to be 0.12 nM.
On to `CO[C@H](c1ncc(Cl)cn1)[C@H](C)S(=O)(=O)Nc1nnc(-c2ccn(C)n2)n1-c1c(F)cccc1F` [Example 229.0, (1R,2S)-1-(5-chloro-2-pyrimidinyl)-N-(4-(2,6-difluorophenyl)-5-(1-methyl-1H-pyrazol-3-yl)-4H-1,2,4-triazol-3-yl)-1-methoxy-2-propanesulfonamide], for which the EC50 was found to be 3.1 nM.
Take `Cc1cnc([C@@H](C)[C@H](C)S(=O)(=O)Nc2nnc(-c3noc4ccccc34)n2C2CCOCC2)nc1` [Example 84.0, (2S,3R)-N-(5-(benzo[d]isoxazol-3-yl)-4-(tetrahydro-2H-pyran-4-yl)-4H-1,2,4-triazol-3-yl)-3-(5-methylpyrimidin-2-yl)butane-2-sulfonamide]: the 50% effective concentration (EC50) was determined as 260 nM.
Take `COc1ncnc(OC)c1-n1c(NS(=O)(=O)[C@@H](C)[C@H](C)c2ncc(Cl)cn2)nnc1-c1nn(C)c2ccc(C)cc12` [Example 433.0, (2S,3R)-3-(5-chloropyrimidin-2-yl)-N-(4-(4,6-dimethoxypyrimidin-5-yl)-5-(1,5-dimethyl-1H-indazol-3-yl)-4H-1,2,4-triazol-3-yl)butane-2-sulfonamide]: the EC50 is 0.84 nM.
As for `COc1cccc(OC)c1-n1c(NS(=O)(=O)[C@H](C)Cc2ncc(F)cn2)nnc1-c1nc(C(C)C)cs1` (single isomer, unassigned) [Example 157.0, (R)-N-(4-(2,6-dimethoxyphenyl)-5-(4-isopropylthiazol-2-yl)-4H-1,2,4-triazol-3-yl)-1-(5-fluoropyrimidin-2-yl)propane-2-sulfonamide or (S)-N-(4-(2,6-dimethoxyphenyl)-5-(4-isopropylthiazol-2-yl)-4H-1,2,4-triazol-3-yl)-1-(5-fluoropyrimidin-2-yl)propane-2-sulfonamide], the EC50 turned out to be 58 nM.
Then `COc1cccc(OC)c1-n1c(NS(=O)(=O)[C@@H](C)Cc2ncc(C)cn2)nnc1-c1nc(C)cs1` (single isomer, unassigned) [Example 8.0, (2S)-N-(4-(2,6-dimethoxyphenyl)-5-(4-methyl-1,3-thiazol-2-yl)-4H-1,2,4-triazol-3-yl)-1-(5-methyl-2-pyrimidinyl)-2-propanesulfonamide or (2R)-N-(4-(2,6-dimethoxyphenyl)-5-(4-methyl-1,3-thiazol-2-yl)-4H-1,2,4-triazol-3-yl)-1-(5-methyl-2-pyrimidinyl)-2-propanesulfonamide], with 0.75 nM; and `O=S(=O)(CCc1ccccc1)Nc1nnc(-c2ccc(F)s2)n1-c1ccccc1OC(F)F` [Example 246.0, N-(4-(2-(difluoromethoxy)phenyl)-5-(5-fluoro-2-thiophenyl)-4H-1,2,4-triazol-3-yl)-2-phenylethanesulfonamide], with 39 nM; and `COc1cccc(OC)c1-n1c(NS(=O)(=O)[C@@H](C)[C@H](C)c2ncc(Cl)cn2)nnc1-c1n[nH]c2c1CCCC2` [Example 438.0, (2S,3R)-3-(5-chloropyrimidin-2-yl)-N-(4-(2,6-dimethoxyphenyl)-5-(4,5,6,7-tetrahydro-1H-indazol-3-yl)-4H-1,2,4-triazol-3-yl)butane-2-sulfonamide], with 9.1 nM.
For the compound `COc1cccc(OC)c1-n1c(NS(=O)(=O)[C@@H](C)[C@H](C)c2ncc(Cl)cn2)nnc1-c1cc2n(n1)CCC2` [Example 221.0, (2S,3R)-3-(5-chloro-2-pyrimidinyl)-N-(5-(5,6-dihydro-4H-pyrrolo[1,2-b]pyrazol-2-yl)-4-(2,6-dimethoxyphenyl)-4H-1,2,4-triazol-3-yl)-2-butanesulfonamide], the EC50 stood at 0.32 nM.
With `COc1cccc(OC)c1-n1c(NS(=O)(=O)[C@H](C)Cc2ncc(F)cn2)nnc1-c1nc(C(C)C)cs1` [Example 156.0], the EC50 turned out to be 0.32 nM.
`COc1ccc(N2CCC2=O)cc1-n1c(NS(=O)(=O)CCc2ccc(F)cc2)nnc1-c1cccs1` [Example 130.0, 2-(4-Fluorophenyl)-N-(4-(2-methoxy-5-(2-oxo-1-azetidinyl)phenyl)-5-(2-thiophenyl)-4H-1,2,4-triazol-3-yl)ethanesulfonamide]: the EC50 turned out to be 3.5 nM.
